Data published in US20070197599A1, “HYDROXYLAMINES AND DERIVATIVES AS ANTI-ANGIOGENIC AGENTS” (priority 2006, published 2007).
Like-named read-outs stand apart in the source and are kept apart here.

Columns and labels:
[1] = In vitro stability of Compound 1 in rabbit plasma; assay type: in vitro ADME; conditions: for Concentration of Compound 1 in plasma: 1000 ng/mL added; for half-life at 1000 ng/mL: rabbit, pooled rabbit plasma
Experimental: (§1) The active metabolite of Compound 1 (Cyclopropanecarboxylic acid 1-hydroxy-2,2,6,6-tetramethyl-piperidin-4-yl ester) is TPH. The objective of this analysis was to determine the in vitro half-life of Compound 1 in rat, rabbit, dog, and human plasma under standardized incubation conditions.
(§2) Compound 1 was incubated with pooled rat, rabbit, dog, and human plasma for various times under standardized incubation conditions. Pre-labeled tubes containing pooled plasma from rats, rabbits, dogs, and humans were pre-incubated in a shaking 37° C. water bath. A Compound 1 solution was added to the tubes at a final concentration of 1000 ng/mL. Time zero samples (n=5) were immediately removed and transferred into tubes containing a stabilizer solution (DTPA, acetylcysteine and ascorbic acid), the LC/MS/MS assay internal standard and methanol. […] The tubes were vortexed, placed on ice, followed by centrifugation. One hundred-μL aliquots of the supernatant were transferred into HPLC sample vials. Additional tubes (n=5 at each time point) were incubated for 5, 10, 20, 30, 60, 120, and 240 minutes at 37° C. and thereafter processed. The amount of Compound 1 and TPH in each incubated sample was quantified using validated LC/MS/MS assays.

[2] = In vitro stability of Compound 1 in rat plasma; assay type: in vitro ADME; conditions: for Concentration of Compound 1 in plasma: 1000 ng/mL added; for half-life at 1000 ng/mL: rat, pooled rat plasma
Experimental: as §1, §2

[3] = Single-dose 10-minute intravenous infusion toxicokinetics in Sprague-Dawley rats; assay type: in vivo; conditions: for Cmax: in vivo, read-out: Cmax of Compound 1; for Cmax / Tmax: 10-minute iv infusion; for concentration at 0.167 hr: 0.167 hr from start of infusion; for Tmax: read-out: Tmax of Compound 1
Experimental: Blood for toxicokinetic evaluations was collected at pre-determined time points during and after the infusion.
All pharmacokinetic analyses were performed using Kinetica®, version 4.2 (Innaphase, Philadelphia, Pa.).
Cmax is the observed maximum plasma concentration
Tmax is the time Cmax is reached
T1/2 is the elimination half-life
The plasma concentrations were rounded to the nearest tenth of a ng/mL before the calculations. […] Nominal time points were used for all calculations.

[4] = In vitro stability of Compound 1 in dog plasma; assay type: in vitro ADME; conditions: for Concentration of Compound 1 in plasma: 1000 ng/mL added; for half-life at 1000 ng/mL: dog, pooled dog plasma
Experimental: as §1, §2

[5] = In vitro stability of Compound 1 in human plasma; assay type: in vitro ADME; conditions: for Concentration of Compound 1 in plasma: 1000 ng/mL added; for half-life at 1000 ng/mL: human, pooled human plasma
Experimental: as §1, §2

[6] = average, read-out: in vitro half-life

CC1(C)CC(OC(=O)C2CC2)CC(C)(C)N1O.Cl [Compound 1, 1-hydroxy-4-cyclopropanecarbonyloxy-2,2,6,6-tetramethylpiperidine hydrochloride]
Concentration of Compound 1 in plasma ([1]; 37° C., incubation 0 min): 502.75 ± 74.66 ng/mL
Concentration of Compound 1 in plasma ([1]; 37° C., incubation 5 min): 14.56 ± 3.35 ng/mL
Concentration of Compound 1 in plasma ([1]; 37° C., incubation 10 min): 0.00 ± 0.00 ng/mL
Concentration of Compound 1 in plasma ([1]; 37° C., incubation 20 min): 0.00 ± 0.00 ng/mL
Concentration of Compound 1 in plasma ([1]; 37° C., incubation 30 min): 0.00 ± 0.00 ng/mL
Concentration of Compound 1 in plasma ([1]; 37° C., incubation 60 min): 0.00 ± 0.00 ng/mL
Concentration of Compound 1 in plasma ([1]; 37° C., incubation 120 min): 0.00 ± 0.00 ng/mL
Concentration of Compound 1 in plasma ([1]; 37° C., incubation 240 min): 0.00 ± 0.00 ng/mL
half-life at 1000 ng/mL [1, 6]: 1 min
half-life at 1000 ng/mL ([1]; in vitro, 37° C., read-out: T½): 0.98 min
Concentration of Compound 1 in plasma ([2]; 37° C., incubation 0 min): 806.50 ± 86.77 ng/mL
Concentration of Compound 1 in plasma ([2]; 37° C., incubation 5 min): 770.32 ± 20.66 ng/mL
Concentration of Compound 1 in plasma ([2]; 37° C., incubation 10 min): 745.77 ± 15.50 ng/mL
Concentration of Compound 1 in plasma ([2]; 37° C., incubation 20 min): 682.88 ± 16.94 ng/mL
Concentration of Compound 1 in plasma ([2]; 37° C., incubation 30 min): 613.79 ± 25.84 ng/mL
Concentration of Compound 1 in plasma ([2]; 37° C., incubation 60 min): 480.48 ± 10.69 ng/mL
Concentration of Compound 1 in plasma ([2]; 37° C., incubation 120 min): 277.94 ± 5.55 ng/mL
Concentration of Compound 1 in plasma ([2]; 37° C., incubation 240 min): 80.70 ± 2.02 ng/mL
half-life at 1000 ng/mL [2, 6]: 70 min
half-life at 1000 ng/mL ([2]; in vitro, 37° C., read-out: T½): 69.5 min
plasma level of Compound 1 at one hour after termination of the infusion ([3]; 10 mg/kg): not quantifiable
Cmax ([3]; both sexes, Sprague-Dawley, rat, 10 mg/kg): 980 ng/mL
Cmax ([3]; both sexes, Sprague-Dawley, rat, 30 mg/kg): 3490 ng/mL
Cmax ([3]; both sexes, Sprague-Dawley, rat, 100 mg/kg): 29000 ng/mL
Cmax ([3]; both sexes, Sprague-Dawley, rat, 200 mg/kg): 89700 ng/mL
concentration at 0.167 hr ([3]; both sexes, Sprague-Dawley, rat, plasma, 10 mg/kg iv infusion, read-out: Plasma concentration of Compound 1): 980 ± 311 ng/mL
concentration at 1.167 hr ([3]; both sexes, Sprague-Dawley, rat, plasma, 10 mg/kg iv infusion, 1.167 hr, below 50 ng/mL assigned zero, read-out: Plasma concentration of Compound 1): 0 ng/mL
concentration at 2.167 hr ([3]; both sexes, Sprague-Dawley, rat, plasma, 10 mg/kg iv infusion, 2.167 hr, below 50 ng/mL assigned zero, read-out: Plasma concentration of Compound 1): 0 ng/mL
concentration at 4.167 hr ([3]; both sexes, Sprague-Dawley, rat, plasma, 10 mg/kg iv infusion, below 50 ng/mL assigned zero, read-out: Plasma concentration of Compound 1): 0 ng/mL
Tmax ([3]; both sexes, Sprague-Dawley, rat, plasma, 10 mg/kg): 10 min
concentration at 0.167 hr ([3]; both sexes, Sprague-Dawley, rat, plasma, 30 mg/kg iv infusion, read-out: Plasma concentration of Compound 1): 3490 ± 809 ng/mL
concentration at 4.167 hr ([3]; both sexes, Sprague-Dawley, rat, plasma, 30 mg/kg iv infusion, below 50 ng/mL assigned zero, read-out: Plasma concentration of Compound 1): 0 ng/mL
Tmax ([3]; both sexes, Sprague-Dawley, rat, plasma, 30 mg/kg): 10 min
concentration at 0.167 hr ([3]; both sexes, Sprague-Dawley, rat, plasma, 100 mg/kg iv infusion, read-out: Plasma concentration of Compound 1): 29000 ± 15100 ng/mL
concentration at 4.167 hr ([3]; both sexes, Sprague-Dawley, rat, plasma, 100 mg/kg iv infusion, below 50 ng/mL assigned zero, read-out: Plasma concentration of Compound 1): 0 ng/mL
Tmax ([3]; both sexes, Sprague-Dawley, rat, plasma, 100 mg/kg): 10 min
concentration at 0.167 hr ([3]; both sexes, Sprague-Dawley, rat, plasma, 200 mg/kg iv infusion, read-out: Plasma concentration of Compound 1): 89700 ± 18100 ng/mL
concentration at 4.167 hr ([3]; both sexes, Sprague-Dawley, rat, plasma, 200 mg/kg iv infusion, below 50 ng/mL assigned zero, read-out: Plasma concentration of Compound 1): 0 ng/mL
Tmax ([3]; both sexes, Sprague-Dawley, rat, plasma, 200 mg/kg): 10 min
clearance of Compound 1 in rats ([3]; suggested by the results, half-life not determinable): very rapid
plasma levels of Compound 1 at four hours after termination of the infusion ([3]; three higher dosages of 30 to 200 mg/kg): not quantifiable
Concentration of Compound 1 in plasma ([4]; 37° C., incubation 0 min): 771.12 ± 21.68 ng/mL
Concentration of Compound 1 in plasma ([4]; 37° C., incubation 5 min): 804.93 ± 17.45 ng/mL
Concentration of Compound 1 in plasma ([4]; 37° C., incubation 10 min): 811.14 ± 21.06 ng/mL
Concentration of Compound 1 in plasma ([4]; 37° C., incubation 20 min): 809.01 ± 18.58 ng/mL
Concentration of Compound 1 in plasma ([4]; 37° C., incubation 30 min): 789.53 ± 13.73 ng/mL
Concentration of Compound 1 in plasma ([4]; 37° C., incubation 60 min): 717.22 ± 25.73 ng/mL
Concentration of Compound 1 in plasma ([4]; 37° C., incubation 120 min): 608.14 ± 25.96 ng/mL
Concentration of Compound 1 in plasma ([4]; 37° C., incubation 240 min): 428.20 ± 12.03 ng/mL
half-life at 1000 ng/mL ([4]; average, read-out: in vitro half-life (converted)): 240 min
half-life at 1000 ng/mL ([4]; in vitro, 37° C., read-out: T½): 240 min
Concentration of Compound 1 in plasma ([5]; 37° C., incubation 0 min): 775.47 ± 22.50 ng/mL
Concentration of Compound 1 in plasma ([5]; 37° C., incubation 5 min): 593.43 ± 7.55 ng/mL
Concentration of Compound 1 in plasma ([5]; 37° C., incubation 10 min): 503.18 ± 20.90 ng/mL
Concentration of Compound 1 in plasma ([5]; 37° C., incubation 20 min): 394.69 ± 6.72 ng/mL
Concentration of Compound 1 in plasma ([5]; 37° C., incubation 30 min): 316.37 ± 7.67 ng/mL
Concentration of Compound 1 in plasma ([5]; 37° C., incubation 60 min): 162.41 ± 9.77 ng/mL
Concentration of Compound 1 in plasma ([5]; 37° C., incubation 120 min): 32.22 ± 2.63 ng/mL
Concentration of Compound 1 in plasma ([5]; 37° C., incubation 240 min): 0.00 ± 0.00 ng/mL
half-life at 1000 ng/mL [5, 6]: 28 min
half-life at 1000 ng/mL ([5]; in vitro, 37° C., read-out: T½): 27.8 min
